Reference: ChEMBL document CHEMBL4433253, “Development of a novel inducer for EBV lytic therapy” (Bioorg Med Chem Lett, 2019)
Converted amounts (≈) assume the structure as drawn. The source made the active and inactive calls. The calls are words filed in the database; no cut-off is given here.

Key:
[1] = Stability in mouse plasma; assay type: ADME, cell-free; conditions: read-out: Stability
Human gammaherpesvirus 4 [2] = assay: Reactivation of latent EBV infected in human MUTU-I cells incubated for 48 hrs by steady-glo luciferase reporter assay; assay type: functional, organism-based; conditions: human gammaherpesvirus 4, MUTU-I
[3] = Stability in human plasma; assay type: ADME, cell-free; conditions: read-out: Stability
[4] = Half life in human liver microsomes; assay type: ADME, Microsome
[5] = Half life in mouse liver microsomes; assay type: ADME, Microsome
[6] = Aqueous solubility of compound in pH 7.4 PBS buffer; assay type: physicochemical
Human gammaherpesvirus 4 [7] = assay: Reactivation of latent EBV infected in human MUTU-I cells incubated for 48 hrs by steady-glo luciferase reporter assay relative to C60; assay type: functional; design: concentration or dose not given beside the values
Human gammaherpesvirus 4 [8] = assay: Reactivation of latent EBV in human SNU-719 cells xenografted NSG mouse assessed as increase in BZLF1 protein level in tumor mass at 30 mg/kg, ip qd for 4 days starting from 28 days post infection by immunoblot analysis; assay type: functional, organism-based
Human gammaherpesvirus 4 [9] = assay: Reactivation of latent EBV in human AGS cells xenografted NSG mouse assessed as increase in BZLF1 protein level in tumor mass at 25 mg/kg, ip qd for 3 days starting from 35 days post infection by immunoblot analysis

COc1ccc(C2c3[nH]c4ccc(Cl)cc4c3CCN2C(=O)c2cccc(OC)c2)cc1 (centres undefined)
half-life [1]: > 6 h | EC50 (Human gammaherpesvirus 4 [2]): 168 nM | half-life [3]: > 6 h | t1/2 [4]: > 1.5 h | t1/2 [5]: 0.517 h | solubility [6]: 166 µg/mL (≈ 371 µM)

COc1ccc(C2c3[nH]c4ccc(Cl)cc4c3CCN2C(=O)c2ccccc2OC)cc1 (centres undefined)
EC50 (Human gammaherpesvirus 4 [2]): 4270 nM

COc1ccc(C2c3[nH]c4ccc(Cl)cc4c3CCN2S(=O)(=O)c2ccc(OC)cc2)cc1 (centres undefined)
EC50 (Human gammaherpesvirus 4 [2]): 8030 nM

COC(=O)c1cccc(NC(=O)N2CCc3c([nH]c4ccc(Cl)cc34)C2c2ccc(OC)cc2)c1 (centres undefined)
Activity (Human gammaherpesvirus 4 [7]): 17%

COc1cccc(C(=O)N2CCc3c([nH]c4ccc(Cl)cc34)C2c2ccc(O)cc2)c1 (centres undefined)
EC50 (Human gammaherpesvirus 4 [2]): 310 nM | Activity (Human gammaherpesvirus 4 [8]): Active

COc1ccc(C2c3[nH]c4ccc(Cl)cc4c3CCN2C(=O)c2ccccc2C(F)(F)F)cc1 (centres undefined)
EC50 (Human gammaherpesvirus 4 [2]): 1580 nM

COc1ccc(C(=O)N2CCc3c([nH]c4ccc(Cl)cc34)C2c2ccc(OC)cc2)cc1 (centres undefined)
EC50 (Human gammaherpesvirus 4 [2]): 154 nM

COc1ccc(C2c3[nH]c4ccc(Cl)cc4c3CCN2S(=O)(=O)c2ccccc2OC)cc1 (centres undefined)
EC50 (Human gammaherpesvirus 4 [2]): 4010 nM

COc1ccc(NC(=O)N2CCc3c([nH]c4ccc(Cl)cc34)C2c2ccc(OC)cc2)cc1 (centres undefined)
Activity (Human gammaherpesvirus 4 [7]): 31%

COC(=O)c1ccccc1NC(=O)N1CCc2c([nH]c3ccccc23)C1c1ccc(OC)cc1 (centres undefined)
Activity (Human gammaherpesvirus 4 [7]): 14%

COCCOCCOCCOc1ccc(C2c3[nH]c4ccc(Cl)cc4c3CCN2C(=O)Nc2ccccc2Cl)cc1 (centres undefined)
Activity (Human gammaherpesvirus 4 [8]): Active | Activity (Human gammaherpesvirus 4 [9]): Active

COc1ccc(C2c3[nH]c4ccc(Cl)cc4c3CCN2C(=O)c2ccccc2Cl)cc1 (centres undefined)
EC50 (Human gammaherpesvirus 4 [2]): 2430 nM

CCOC(=O)c1ccccc1NC(=O)N1CCc2c([nH]c3ccc(OC)cc23)C1c1ccc(C)cc1 (centres undefined)
EC50 (Human gammaherpesvirus 4 [2]): 1080 nM

COC(=O)c1ccccc1NC(=O)N1CCc2c([nH]c3ccc(Cl)cc23)C1c1ccc(OC)cc1 (centres undefined)
half-life [1]: > 6 h | EC50 (Human gammaherpesvirus 4 [2]): 157 nM | half-life [3]: > 6 h | t1/2 [4]: 1.3 h | t1/2 [5]: > 1.5 h | solubility [6]: < 10 µg/mL

O=C(c1cccc(CN2CCOCC2)c1)N1CCc2c([nH]c3ccc(Cl)cc23)C1c1ccc(Cl)cc1 (centres undefined)
EC50 (Human gammaherpesvirus 4 [2]): 277 nM

COc1ccc(C2c3[nH]c4ccc(Cl)cc4c3CCN2C(=O)Nc2ccc(OC)cc2OC)cc1 (centres undefined)
EC50 (Human gammaherpesvirus 4 [2]): 1130 nM

COc1ccc(C2c3[nH]c4ccc(Cl)cc4c3CCN2C(=O)Nc2cccc(OC)c2)cc1 (centres undefined)
Activity (Human gammaherpesvirus 4 [7]): 43%

COc1ccc(C2c3[nH]c4ccc(Cl)cc4c3CCN2C(=O)c2ccc(Cl)cc2)cc1 (centres undefined)
EC50 (Human gammaherpesvirus 4 [2]): 228 nM

COc1ccc(C2c3[nH]c4ccc(Cl)cc4c3CCN2C(=O)Nc2ccccc2OC)cc1 (centres undefined)
Activity (Human gammaherpesvirus 4 [7]): 79% | EC50 (Human gammaherpesvirus 4 [2]): 169 nM

COC(=O)c1sccc1NC(=O)N1CCc2c([nH]c3ccc(OC)cc23)C1c1ccc(C)cc1 (centres undefined)
EC50 (Human gammaherpesvirus 4 [2]): 576 nM

COCCOCCOCCOc1ccc(C2c3[nH]c4ccc(Cl)cc4c3CCN2C(=O)Nc2ccccc2C(=O)OC)cc1 (centres undefined)
Activity (Human gammaherpesvirus 4 [8]): Active | Activity (Human gammaherpesvirus 4 [9]): Active

COc1ccc(C2NCCc3c2[nH]c2ccc(Cl)cc32)cc1 (centres undefined)
EC50 (Human gammaherpesvirus 4 [2]): 215 nM

COc1ccc(C2c3[nH]c4ccccc4c3CCN2C(=O)Nc2ccccc2OC)cc1 (centres undefined)
Activity (Human gammaherpesvirus 4 [7]): 15%

COc1ccc(C2c3[nH]c4ccc(Cl)cc4c3CCN2C(=O)c2cccc(CN3CCOCC3)c2)cc1 (centres undefined)
EC50 (Human gammaherpesvirus 4 [2]): 277 nM

COc1ccc(C2c3[nH]c4ccc(Cl)cc4c3CCN2C(=O)c2ccc(C(F)(F)F)cc2)cc1 (centres undefined)
EC50 (Human gammaherpesvirus 4 [2]): 434 nM
